Data from ChEMBL document CHEMBL4118048, “Characterization of the Polymyxin D Synthetase Biosynthetic Cluster and Product Profile of Paenibacillus polymyxa ATCC 10401” (2017).
Converted amounts (≈) assume the structure as drawn. The source made the active and inactive calls. No cut-off for these calls is given here. Where a SMILES comes first, the peptide text is derived from it. Bridges are numbered along the chain shown (N, C = ends). [ ]: non-standard residue; d: D form. The star is where a group is joined. Heptanoyl(6-Me) = CC(C)CCCCC(=O)*; X1 = CC[C@H](C)CCCCC(=O)*; Dab = NCC[C@H](N)C(=O)O

Tests used:
Klebsiella pneumoniae [1] = test: Antibacterial activity against Klebsiella pneumoniae isolate FADDI-KP032 after 18 hrs by broth microdilution method; format: functional; conditions: isolate FADDI-KP032, 18 h
Pseudomonas aeruginosa [2] = test: Antibacterial activity against Pseudomonas aeruginosa ATCC 27853 after 18 hrs by broth microdilution method; format: functional; conditions: ATCC 27853, 18 h
Acinetobacter baumannii [3] = test: Antibacterial activity against Acinetobacter baumannii ATCC 19606 after 18 hrs by broth microdilution method; format: functional; conditions: ATCC 19606 = CIP 70.34 = JCM 6841, 18 h
Acinetobacter baumannii [4] = test: Antibacterial activity against Acinetobacter baumannii ATCC 19606 infected in mouse assessed as reduction in bacterial count in blood at 4 mg/kg, ip measured after 4 hrs; format: functional, organism-based; conditions: ATCC 19606 = CIP 70.34 = JCM 6841
Pseudomonas aeruginosa [5] = test: Antibacterial activity against Pseudomonas aeruginosa ATCC 27853 infected in mouse assessed as reduction in bacterial count in blood at 4 mg/kg, ip measured after 4 hrs; format: functional
Klebsiella pneumoniae [6] = test: Antibacterial activity against Klebsiella pneumoniae isolate FADDI-KP032 infected in mouse assessed as reduction in bacterial count in blood at 4 mg/kg, ip measured after 4 hrs; format: functional, organism-based
Pseudomonas aeruginosa [7] = test: Antibacterial activity against Pseudomonas aeruginosa isolate FADDI-PA025 after 18 hrs by broth microdilution method; format: functional; conditions: isolate FADDI-PA025, 18 h
Pseudomonas aeruginosa [8] = test: Antibacterial activity against Pseudomonas aeruginosa isolate FADDI-PA001 after 18 hrs by broth microdilution method; format: functional; conditions: isolate FADDI-PA001, 18 h
Pseudomonas aeruginosa [9] = test: Antibacterial activity against Pseudomonas aeruginosa isolate FADDI-PA038 after 18 hrs by broth microdilution method; format: functional; conditions: isolate FADDI-PA038, 18 h
Pseudomonas aeruginosa [10] = test: Antibacterial activity against Pseudomonas aeruginosa isolate FADDI-PA022 after 18 hrs by broth microdilution method; format: functional; conditions: isolate FADDI-PA022, 18 h
Klebsiella pneumoniae [11] = test: Antibacterial activity against Klebsiella pneumoniae ATCC 13883 after 18 hrs by broth microdilution method; format: functional; conditions: ATCC 13883, 18 h
Escherichia coli [12] = test: Antibacterial activity against Escherichia coli isolate FADDI-EC006 after 18 hrs by broth microdilution method; format: functional; conditions: isolate FADDI-EC006, 18 h
Klebsiella pneumoniae [13] = test: Antibacterial activity against Klebsiella pneumoniae ATCC 700721 after 18 hrs by broth microdilution method; format: functional; conditions: ATCC 700721, 18 h
Klebsiella pneumoniae [14] = test: Antibacterial activity against Klebsiella pneumoniae isolate FADDI-KP065 after 18 hrs by broth microdilution method; format: functional; conditions: isolate FADDI-KP065, 18 h
Klebsiella pneumoniae [15] = test: Antibacterial activity against Klebsiella pneumoniae BM1 after 18 hrs by broth microdilution method; format: functional; conditions: BM1, 18 h
Acinetobacter baumannii [16] = test: Antibacterial activity against Acinetobacter baumannii isolate FADDI-AB034 after 18 hrs by broth microdilution method; format: functional; conditions: isolate FADDI-AB034, 18 h
Escherichia coli [17] = test: Antibacterial activity against Escherichia coli isolate FADDI-EC003 after 18 hrs by broth microdilution method; format: functional; conditions: isolate FADDI-EC003, 18 h
Acinetobacter baumannii [18] = test: Antibacterial activity against Acinetobacter baumannii ATCC 17978 after 18 hrs by broth microdilution method; format: functional; conditions: ATCC 17978, 18 h
Acinetobacter baumannii [19] = test: Antibacterial activity against Acinetobacter baumannii isolate FADDI-AB030 after 18 hrs by broth microdilution method; format: functional; conditions: isolate FADDI-AB030, 18 h
Klebsiella pneumoniae [20] = test: Antibacterial activity against Klebsiella pneumoniae isolate FADDI-KP022 after 18 hrs by broth microdilution method; format: functional; conditions: isolate FADDI-KP022, 18 h
Escherichia coli [21] = test: Antibacterial activity against Escherichia coli isolate FADDI-EC001 after 18 hrs by broth microdilution method; format: functional; conditions: isolate FADDI-EC001, 18 h

## CC[C@H](C)CCCCC(=O)N[C@@H](CCN)C(=O)N[C@H](C(=O)N[C@@H](CCN)C(=O)N[C@H]1CCNC(=O)[C@H]([C@@H](C)O)NC(=O)[C@H](CCN)NC(=O)[C@H](CCN)NC(=O)[C@H](CC(C)C)NC(=O)[C@@H](Cc2ccccc2)NC(=O)[C@H](CCN)NC1=O)[C@@H](C)O (X1-[Dab]T[Dab][Dab][Dab][dF]L[Dab][Dab]T; lactam 4-C)
Klebsiella pneumoniae [1]
  MIC: 0.5 µg/mL (≈ 0.415 µM)
Pseudomonas aeruginosa [2]
  MIC: 0.5 µg/mL (≈ 0.415 µM)
Acinetobacter baumannii [3]
  MIC: 0.5 µg/mL (≈ 0.415 µM)
Acinetobacter baumannii [4]
  Activity: Active
Pseudomonas aeruginosa [5]
  log(activity): -2.55
Klebsiella pneumoniae [6]
  Activity: Active

## CC(C)CCCCC(=O)N[C@@H](CCN)C(=O)N[C@H](C(=O)N[C@H](CO)C(=O)N[C@H]1CCNC(=O)[C@H]([C@@H](C)O)NC(=O)[C@H](CCN)NC(=O)[C@H](CCN)NC(=O)[C@H]([C@@H](C)O)NC(=O)[C@@H](CC(C)C)NC(=O)[C@H](CCN)NC1=O)[C@@H](C)O ({Heptanoyl(6-Me)}-[Dab]T[dS][Dab][Dab][dL]T[Dab][Dab]T; lactam 4-C)
Pseudomonas aeruginosa [7]
  MIC: 8 to 32 µg/mL (≈ 7.08 to 28.3 µM)
Klebsiella pneumoniae [1]
  MIC: 8 to 32 µg/mL (≈ 7.08 to 28.3 µM)
Pseudomonas aeruginosa [2]
  MIC: 8 to 32 µg/mL (≈ 7.08 to 28.3 µM)
Pseudomonas aeruginosa [8]
  MIC: 8 to 32 µg/mL (≈ 7.08 to 28.3 µM)
Acinetobacter baumannii [3]
  MIC: 8 to 32 µg/mL (≈ 7.08 to 28.3 µM)
Pseudomonas aeruginosa [9]
  MIC: 8 to 32 µg/mL (≈ 7.08 to 28.3 µM)
Pseudomonas aeruginosa [10]
  MIC: 8 to 32 µg/mL (≈ 7.08 to 28.3 µM)
Klebsiella pneumoniae [11]
  MIC: 8 to 32 µg/mL (≈ 7.08 to 28.3 µM)
Escherichia coli [12]
  MIC: 8 to 32 µg/mL (≈ 7.08 to 28.3 µM)
Klebsiella pneumoniae [13]
  MIC: 8 to 32 µg/mL (≈ 7.08 to 28.3 µM)
Klebsiella pneumoniae [14]
  MIC: 8 to 32 µg/mL (≈ 7.08 to 28.3 µM)
Acinetobacter baumannii [4]
  Activity: Active
Pseudomonas aeruginosa [5]
  Activity: inactive
Klebsiella pneumoniae [15]
  MIC: 8 to 32 µg/mL (≈ 7.08 to 28.3 µM)
Acinetobacter baumannii [16]
  MIC: 8 to 32 µg/mL (≈ 7.08 to 28.3 µM)
Escherichia coli [17]
  MIC: 8 to 32 µg/mL (≈ 7.08 to 28.3 µM)
Acinetobacter baumannii [18]
  MIC: 8 to 32 µg/mL (≈ 7.08 to 28.3 µM)
Acinetobacter baumannii [19]
  MIC: 8 to 32 µg/mL (≈ 7.08 to 28.3 µM)
Klebsiella pneumoniae [20]
  MIC: 8 to 32 µg/mL (≈ 7.08 to 28.3 µM)
Klebsiella pneumoniae [6]
  Activity: Active
Escherichia coli [21]
  MIC: 8 to 32 µg/mL (≈ 7.08 to 28.3 µM)

## CC(C)CCCCC(=O)N[C@@H](CCN)C(=O)N[C@H](C(=O)N[C@@H](CCN)C(=O)N[C@H]1CCNC(=O)[C@H]([C@@H](C)O)NC(=O)[C@H](CCN)NC(=O)[C@H](CCN)NC(=O)[C@H](CC(C)C)NC(=O)[C@@H](Cc2ccccc2)NC(=O)[C@H](CCN)NC1=O)[C@@H](C)O [POLYMYXIN B2] ({Heptanoyl(6-Me)}-[Dab]T[Dab][Dab][Dab][dF]L[Dab][Dab]T; lactam 4-C)
Klebsiella pneumoniae [1]
  MIC: 0.5 µg/mL (≈ 0.42 µM)
Pseudomonas aeruginosa [2]
  MIC: 0.5 µg/mL (≈ 0.42 µM)
Acinetobacter baumannii [3]
  MIC: 0.5 µg/mL (≈ 0.42 µM)
Acinetobacter baumannii [4]
  Activity: Active
Pseudomonas aeruginosa [5]
  log(activity): -2.55
Klebsiella pneumoniae [6]
  Activity: Active

## CC[C@H](C)CCCCC(=O)N[C@@H](CCN)C(=O)N[C@H](C(=O)N[C@H](CO)C(=O)N[C@H]1CCNC(=O)[C@H]([C@@H](C)O)NC(=O)[C@H](CCN)NC(=O)[C@H](CCN)NC(=O)[C@H]([C@@H](C)O)NC(=O)[C@@H](CC(C)C)NC(=O)[C@H](CCN)NC1=O)[C@@H](C)O (X1-[Dab]T[dS][Dab][Dab][dL]T[Dab][Dab]T; lactam 4-C)
Pseudomonas aeruginosa [7]
  MIC: 8 to 32 µg/mL (≈ 6.99 to 28 µM)
Klebsiella pneumoniae [1]
  MIC: 8 to 32 µg/mL (≈ 6.99 to 28 µM)
Pseudomonas aeruginosa [2]
  MIC: 8 to 32 µg/mL (≈ 6.99 to 28 µM)
Pseudomonas aeruginosa [8]
  MIC: 8 to 32 µg/mL (≈ 6.99 to 28 µM)
Acinetobacter baumannii [3]
  MIC: 8 to 32 µg/mL (≈ 6.99 to 28 µM)
Pseudomonas aeruginosa [9]
  MIC: 8 to 32 µg/mL (≈ 6.99 to 28 µM)
Pseudomonas aeruginosa [10]
  MIC: 8 to 32 µg/mL (≈ 6.99 to 28 µM)
Klebsiella pneumoniae [11]
  MIC: 8 to 32 µg/mL (≈ 6.99 to 28 µM)
Escherichia coli [12]
  MIC: 8 to 32 µg/mL (≈ 6.99 to 28 µM)
Klebsiella pneumoniae [13]
  MIC: 8 to 32 µg/mL (≈ 6.99 to 28 µM)
Klebsiella pneumoniae [14]
  MIC: 8 to 32 µg/mL (≈ 6.99 to 28 µM)
Acinetobacter baumannii [4]
  Activity: Active
Pseudomonas aeruginosa [5]
  Activity: inactive
Klebsiella pneumoniae [15]
  MIC: 8 to 32 µg/mL (≈ 6.99 to 28 µM)
Acinetobacter baumannii [16]
  MIC: 8 to 32 µg/mL (≈ 6.99 to 28 µM)
Escherichia coli [17]
  MIC: 8 to 32 µg/mL (≈ 6.99 to 28 µM)
Acinetobacter baumannii [18]
  MIC: 8 to 32 µg/mL (≈ 6.99 to 28 µM)
Acinetobacter baumannii [19]
  MIC: 8 to 32 µg/mL (≈ 6.99 to 28 µM)
Klebsiella pneumoniae [20]
  MIC: 8 to 32 µg/mL (≈ 6.99 to 28 µM)
Klebsiella pneumoniae [6]
  Activity: Active
Escherichia coli [21]
  MIC: 8 to 32 µg/mL (≈ 6.99 to 28 µM)
